Assay results: patent publication US11110089B2, “Pyridazinones and their use in the treatment of cancer” (THE UNITED STATES OF AMERICA, AS REPRESENTED BY THE …, priority 2015, dated 2021)
pIC50: −log10 of the molar value.

Experiments:
[1] = biological target: T1, gluthathione reductase (GR) (Homo sapiens, UniProt P00390); assay: Inhibition of recombinant GR (GSSG assay); assay type: biochemical; settings: 2 nM GR, 250 μM NADPH, 15 minutes incubation, 1 mM GSSG, O.D. at 340 nm
T1 sequence (P00390 44-522): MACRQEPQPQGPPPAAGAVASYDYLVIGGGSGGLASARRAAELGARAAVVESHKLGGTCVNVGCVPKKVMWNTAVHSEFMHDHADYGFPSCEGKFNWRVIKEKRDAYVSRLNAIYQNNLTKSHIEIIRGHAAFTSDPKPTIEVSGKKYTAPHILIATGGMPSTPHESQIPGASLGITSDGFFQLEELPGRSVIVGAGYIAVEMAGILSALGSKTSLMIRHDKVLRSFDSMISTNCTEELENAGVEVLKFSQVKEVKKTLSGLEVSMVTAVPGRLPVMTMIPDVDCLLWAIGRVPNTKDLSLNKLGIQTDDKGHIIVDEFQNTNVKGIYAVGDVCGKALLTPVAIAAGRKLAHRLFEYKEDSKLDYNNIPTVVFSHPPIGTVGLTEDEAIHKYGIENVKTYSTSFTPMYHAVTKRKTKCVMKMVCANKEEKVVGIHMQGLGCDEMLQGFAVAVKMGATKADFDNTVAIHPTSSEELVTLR
Protocol: (§1) Small molecule inhibition of recombinant thioredoxin reductase 1 (TrxR1) and gluthathione reductase (GR) was examined in 96-well plate format. 15 nM TrxR1 was incubated in the presence of 250 μM NADPH, 0.1 mg/ml BSA, and various concentrations of the compound of Example 1 (1% DMSO final) in 50 mM Tris (pH 7.5) and 2 mM EDTA buffer for 15 minutes. Following the incubation period, 2.5 mM DTNB was added to each well and the change in O.D. at 412 nm was followed. Percent activity was determined using DMSO vehicle and no TrxR1 (blank) controls. 2 nM GR was incubated in the presence of 250 μM NADPH, 0.1 mg/ml BSA, and various concentrations of compounds (1% DMSO final) in 50 mM Tris (pH 7.5) and 2 mM EDTA buffer for 15 minutes. Following the incubation period, 1 mM GSSG was added to each well and the change in O.D. at 340 nm was followed. Percent activity was determined using DMSO vehicle and no GR (blank) controls.

[2] = biological target: T2, recombinant thioredoxin reductase 1 (TrxR1) (Homo sapiens, UniProt Q16881); assay: Inhibition of recombinant TrxR1 (DTNB assay); assay type: biochemical; settings: 15 nM TrxR1, 250 μM NADPH, 15 minutes incubation, 2.5 mM DTNB, O.D. at 412 nm; read-out: TrxR inhibition
T2 sequence (Q16881 151-649 limits assumed): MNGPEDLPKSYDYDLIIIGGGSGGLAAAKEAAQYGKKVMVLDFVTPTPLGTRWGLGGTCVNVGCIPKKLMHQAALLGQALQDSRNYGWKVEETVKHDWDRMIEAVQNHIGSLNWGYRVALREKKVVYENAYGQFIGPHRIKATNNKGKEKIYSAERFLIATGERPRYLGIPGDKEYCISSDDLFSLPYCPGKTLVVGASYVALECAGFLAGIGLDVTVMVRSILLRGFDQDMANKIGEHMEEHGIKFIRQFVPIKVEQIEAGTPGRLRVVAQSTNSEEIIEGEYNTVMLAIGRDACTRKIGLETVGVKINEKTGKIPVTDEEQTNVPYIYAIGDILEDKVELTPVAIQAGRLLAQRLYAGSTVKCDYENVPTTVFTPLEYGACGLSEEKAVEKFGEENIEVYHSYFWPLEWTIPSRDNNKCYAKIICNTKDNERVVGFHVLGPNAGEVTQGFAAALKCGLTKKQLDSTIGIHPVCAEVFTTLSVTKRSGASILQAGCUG
Protocol: as §1

O=c1c(Cl)c(Cl)cnn1Cc1nnc(-c2ccc(Cl)cc2)o1 [Example 1, 4,5-dichloro-2-((5-(4-chlorophenyl)-1,3,4-oxadiazol-2-yl)methyl)pyridazin-3-one]
pIC50 [1]: < 4.00 | pIC50 [2]: 5.73
